Laboratory results reported in patent US8106055B2, “Substituted amide compounds” (Gruenenthal GmbH, priority 2007, dated 2012).

target: T1, human bradykinin 1 receptor (B1R) (Homo sapiens, UniProt P46663); experiment: Functional investigation on the human bradykinin 1 receptor (B1R), Ca2+ FLIPR assay in CHO K1 hB1R cells; type: cell-based; settings: B1R antagonism human; test substance 10 μM; Ca2+ FLIPR, CHO K1 hB1R cells
T1 construct: expressed in transfected cells; host or cells: CHO K1 cells
T1 sequence (P46663 1-353): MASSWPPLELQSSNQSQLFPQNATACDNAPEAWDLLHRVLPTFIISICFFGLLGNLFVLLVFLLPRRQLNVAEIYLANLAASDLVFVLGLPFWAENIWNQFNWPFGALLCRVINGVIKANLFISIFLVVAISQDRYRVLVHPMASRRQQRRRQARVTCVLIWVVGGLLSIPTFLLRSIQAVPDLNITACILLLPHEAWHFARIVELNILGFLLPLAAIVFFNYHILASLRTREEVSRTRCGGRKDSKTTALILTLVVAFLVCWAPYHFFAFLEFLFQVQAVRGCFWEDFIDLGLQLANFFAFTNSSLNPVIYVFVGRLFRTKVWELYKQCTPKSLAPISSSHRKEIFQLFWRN
In short: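 Stably transfected CHO K1 cells loaded with Fluo-4; FLIPR Ca2+ fluorescence peak (ex 488/em 540 nm). Compound added first (agonism vs Lys-Des-Arg9-bradykinin ≥50 nM human, Des-Arg9-bradykinin 10 μM rat), then after 10-20 min agonist at EC80; antagonism as % inhibition, IC50 from concentration series, n=2-3, N≥2.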

First: CN(C)C(c1ccccc1)C1CCC(CNC(=O)COCC2CCCN(S(=O)(=O)c3ccccc3)C2)CC1 (stereo not shown) [Example 129, N((4((dimethylamino)(phenyl)methyl)cyclohexyl)methyl)-2-((1-(phenylsulfonyl)piperidin-3-yl)methoxy)acetamide]
Second: CN(C)C(c1cccc(F)c1)C1CCC(CNC(=O)COCC2CCCN(S(=O)(=O)c3ccccc3)C2)CC1 (stereo not shown) [Example 220]
The “B1R Ant. h [10 μM] % Inhibition” value of the first is lower: −5% for the first, 6% for the second.

First: Cc1ccc(S(=O)(=O)N(C)CCOCC(=O)NC2CCC(C(c3cccs3)N(C)C)CC2)cc1 (stereo not shown) [Example 168, N-(4-((dimethylamino) (thiophen-2-yl)methyl)cyclohexyl)-2-(2-(N,4-dimethylphenylsulfamido)ethoxy)acetamide]
Second: Cc1ccc(S(=O)(=O)N(C)CCOCC(=O)NC2CCC(C(c3cccc(F)c3)N(C)C)CC2)cc1 (stereo not shown) [Example 226]
The “B1R Ant. h [10 μM] % Inhibition” value of the first is lower: −5% for the first, −4% for the second.

Going from `COc1cc(C)c(S(=O)(=O)N(CCOCC(=O)NCC2CCC(C(c3ccccc3)N(C)C)CC2)Cc2ccccc2)c(C)c1C` (stereo not shown) [Example 201] to `CCN(CCOCC(=O)NCC1CCC(C(c2ccccc2)N(C)C)CC1)S(=O)(=O)c1c(C)cc(OC)c(C)c1C` (stereo not shown) [Example 231], the “B1R Ant. h [10 μM] % Inhibition” value falls from 76% to 9%.

Going from `CN(C)C(c1cccc(F)c1)C1CCC(CCNC(=O)COCC2CCCN2S(=O)(=O)c2ccc(Cl)c(Cl)c2)CC1` (stereo not shown) [Example 202] to `CN(C)C(c1cccc(F)c1)C1CCC(NC(=O)COCC2CCCN2S(=O)(=O)c2ccc(Cl)c(Cl)c2)CC1` (stereo not shown) [Example 211], the “B1R Ant. h [10 μM] % Inhibition” value falls from 48% to 33%.

Compared with `COc1ccc(S(=O)(=O)N2CCCCC2CCOCC(=O)NCC2CCC(C(c3cccc(F)c3)N(C)C)CC2)cc1` (stereo not shown) [Example 203], `COc1ccc(S(=O)(=O)N2CCCCC2CCOCC(=O)NCCC2CCC(C(c3cccc(F)c3)N(C)C)CC2)cc1` (stereo not shown) [Example 213] is higher in “B1R Ant. h [10 μM] % Inhibition” value: 42% for the first, 78% for the second.

Going from `CN(C)C(c1cccc(F)c1)C1CCC(NC(=O)COC2CCN(S(=O)(=O)c3ccc(Cl)cc3)C2)CC1` (stereo not shown) [Example 204] to `CN(C)C(c1cccc(F)c1)C1CCC(CCNC(=O)COC2CCN(S(=O)(=O)c3ccc(Cl)cc3)C2)CC1` (stereo not shown) [Example 247], the “B1R Ant. h [10 μM] % Inhibition” value rises from 2% to 4%.

First: CN(C)C(c1cccc(F)c1)C1CCC(NC(=O)COCCN(C)S(=O)(=O)c2ccc(F)cc2)CC1 (stereo not shown) [Example 205]
Second: CN(C)C(c1cccc(F)c1)C1CCC(CNC(=O)COCCN(C)S(=O)(=O)c2ccc(F)cc2)CC1 (stereo not shown) [Example 229]
The “B1R Ant. h [10 μM] % Inhibition” value of the first is lower: −11% for the first, 7% for the second.

Compared with `COc1ccc(S(=O)(=O)N(C)CCOCC(=O)NC2CCC(C(c3cccs3)N(C)C)CC2)cc1OC` (stereo not shown) [Example 206], `Cc1cc(C)c(S(=O)(=O)N(C)CCOCC(=O)NC2CCC(C(c3cccs3)N(C)C)CC2)c(C)c1` (stereo not shown) [Example 235] is higher in “B1R Ant. h [10 μM] % Inhibition” value: −5% for the first, 31% for the second.

Compared with `CN(C)C(c1ccc(Cl)cc1)C1CCC(CNC(=O)COCCN(C)S(=O)(=O)c2c(Cl)cccc2Cl)CC1` (stereo not shown) [Example 207], `CN(C)C(c1ccc(Cl)cc1)C1CCC(CCNC(=O)COCCN(C)S(=O)(=O)c2ccc(F)cc2)CC1` (stereo not shown) [Example 241] is lower in “B1R Ant. h [10 μM] % Inhibition” value: 104% for the first, 29% for the second.

First: CN(C)C(c1cccc(F)c1)C1CCC(NC(=O)COCCN(C)S(=O)(=O)c2c(Cl)cc(Cl)cc2Cl)CC1 (stereo not shown) [Example 208]
Second: CN(C)C(c1cccc(F)c1)C1CCC(NC(=O)COCCN(C)S(=O)(=O)c2ccc(Cl)cc2Cl)CC1 (stereo not shown) [Example 217]
The “B1R Ant. h [10 μM] % Inhibition” value of the first is higher: 89% for the first, 85% for the second.

Compared with `CCN(CCOCC(=O)NCCC1CCC(C(c2cccc(F)c2)N(C)C)CC1)S(=O)(=O)c1c(C)cc(OC)c(C)c1C` (stereo not shown) [Example 209], `COc1cc(C)c(S(=O)(=O)N2CCCC(OCC(=O)NCCC3CCC(C(c4cccc(F)c4)N(C)C)CC3)C2)c(C)c1C` (stereo not shown) [Example 221] is lower in “B1R Ant. h [10 μM] % Inhibition” value: 64% for the first, 21% for the second.

First: COc1ccc(S(=O)(=O)N2CCCCC2CCOCC(=O)NC2CCC(C(c3ccc(F)cc3)N(C)C)CC2)cc1 (stereo not shown) [Example 212]
Second: COc1ccc(S(=O)(=O)N2CCCCC2COCC(=O)NC2CCC(C(c3cccs3)N(C)C)CC2)cc1 (stereo not shown) [Example 243]
The “B1R Ant. h [10 μM] % Inhibition” value of the first is higher: 49% for the first, 16% for the second.

Compared with `CN(C)C(c1cccs1)C1CCC(CCNC(=O)COC2CCCCC2N(C)S(=O)(=O)c2ccc(Cl)c(Cl)c2)CC1` (stereo not shown) [Example 214], `CN(C)C(c1ccc(F)cc1)C1CCC(CCNC(=O)COC2CCCCC2N(C)S(=O)(=O)c2ccc(Cl)c(Cl)c2)CC1` (stereo not shown) [Example 244] is higher in “B1R Ant. h [10 μM] % Inhibition” value: −2% for the first, 21% for the second.

First: CN(C)C(c1cccc(F)c1)C1CCC(CCNC(=O)COCCN(C)S(=O)(=O)c2ccc(OC(F)(F)F)cc2)CC1 (stereo not shown) [Example 215]
Second: CN(C)C(c1cccc(F)c1)C1CCC(NC(=O)COCCN(C)S(=O)(=O)c2ccc(OC(F)(F)F)cc2)CC1 (stereo not shown) [Example 246]
The “B1R Ant. h [10 μM] % Inhibition” value of the first is lower: 1% for the first, 10% for the second.

First: Cc1ccc(S(=O)(=O)N2CCC(OCC(=O)NCCC3CCC(C(c4cccc(F)c4)N(C)C)CC3)C2)cc1 (stereo not shown) [Example 216]
Second: CN(C)C(c1ccccc1)C1CCC(CNC(=O)COC2CCN(S(=O)(=O)c3ccc(F)cc3)C2)CC1 (stereo not shown) [Example 219]
The “B1R Ant. h [10 μM] % Inhibition” value of the first is higher: 20% for the first, −1% for the second.

Compared with `CN(C)C(c1cccc(F)c1)C1CCC(CCNC(=O)COCCN(C)S(=O)(=O)c2ccc(F)cc2)CC1` (stereo not shown) [Example 218], `Cc1ccc(S(=O)(=O)N(C)CCOCC(=O)NCCC2CCC(C(c3cccc(F)c3)N(C)C)CC2)cc1` (stereo not shown) [Example 240] is lower in “B1R Ant. h [10 μM] % Inhibition” value: 7% for the first, 2% for the second.

First: COc1cc(C)c(S(=O)(=O)N2CCN(CCOCC(=O)NC3CCC(C(c4ccc(F)cc4)N(C)C)CC3)CC2)c(C)c1C (stereo not shown) [Example 222]
Second: COc1cc(C)c(S(=O)(=O)N2CCN(CCOCC(=O)NCC3CCC(C(c4cccc(F)c4)N(C)C)CC3)CC2)c(C)c1C (stereo not shown) [Example 223]
The “B1R Ant. h [10 μM] % Inhibition” value of the first is higher: 54% for the first, 52% for the second.

Going from `COc1ccc(S(=O)(=O)N2CCCC2COCC(=O)NCCC2CCC(C(c3cccc(F)c3)N(C)C)CC2)cc1` (stereo not shown) [Example 224] to `Cc1ccc(S(=O)(=O)N(C)CCOCC(=O)NCC2CCC(C(c3cccc(F)c3)N(C)C)CC2)cc1` (stereo not shown) [Example 227], the “B1R Ant. h [10 μM] % Inhibition” value falls from 34% to 6%.

Going from `CN(C)C(c1cccc(F)c1)C1CCC(CNC(=O)COC2CCN(S(=O)(=O)c3ccc(Cl)cc3Cl)C2)CC1` (stereo not shown) [Example 225] to `COc1cc(C)c(S(=O)(=O)N2CCC(OCC(=O)NCCC3CCC(C(c4cccc(F)c4)N(C)C)CC3)CC2)c(C)c1C` (stereo not shown) [Example 232], the “B1R Ant. h [10 μM] % Inhibition” value falls from 51% to 17%.

`COc1cc(C)c(S(=O)(=O)N(C)CCOCC(=O)NC2CCC(C(c3cccc(F)c3)N(C)C)CC2)c(C)c1` (stereo not shown) [Example 228] and `COc1cc(C)c(S(=O)(=O)N(C)CCOCC(=O)NC2CCC(C(c3ccccc3)N(C)C)CC2)c(C)c1` (stereo not shown) [Example 239] are the same in “B1R Ant. h [10 μM] % Inhibition” value: 104% for the first, 104% for the second.

First: CN(C)C(c1cccs1)C1CCC(CCNC(=O)COC2CCN(S(=O)(=O)c3ccccc3)CC2)CC1 (stereo not shown) [Example 230]
Second: COc1ccc(S(=O)(=O)N(C)CCOCC(=O)NCC2CCC(C(c3ccccc3)N(C)C)CC2)cc1 (stereo not shown) [Example 242]
The “B1R Ant. h [10 μM] % Inhibition” value of the first is lower: −16% for the first, 39% for the second.

`COc1ccc(S(=O)(=O)N2Cc3ccccc3CC2COCC(=O)NC2CCC(C(c3ccc(F)cc3)N(C)C)CC2)cc1` (stereo not shown) [Example 234] was tested, and the “B1R Ant. h [10 μM] % Inhibition” value was 50%.
